Assays:
[1] = system: Myeloma cells transfected with L1; details: References 14 and 21; cited from earlier work
[2] = system: insect SF9 cells transfected with L1; details: References 14 and 21; cited from earlier work
[3] = published or calculated from molecular weight and density at 20° C.; cited from earlier work
[4] = system: BMP-7 treated NG108-15 neuroblastoma×glioma cells; assay: Cell-cell adhesion (short-term aggregation) assay in BMP-7 treated NG108-15 cells; format: cell-based, rat and mouse; details: both cellular systems (NG108-15 + BMP-7 and L1-expressing NIH/3T3)
Procedure: NIH/3T3 cells were cultured in Dulbecco's minimum Eagle medium (DMEM) (Life Technologies, Gaithersburg, Md.) supplemented with 10% normal calf serum (Intergen, Purchase, N.Y.) and 400 μg/ml G418 (Life Technologies). NG108-15 neuroblastoma×glioma cells (passages 21 to 30) were plated in serum-free, defined medium (Reference 16). At the start of the morphogenetic and cell adhesion assays, serum-free medium containing BMP-7 (Creative BioMolecules, Hopkinton, Ma.) (1-40 ng/ml, final) was added daily to the NG108-15 cells. Both cell lines were cultured at 37° C., in an atmosphere of 90% air and 10% CO2. Three NIH/3T3 subclones were utilized in these studies: 2B2-L1, 2A2-L1 and Vec-1A5. The 2B2-L1 and 2A2-L1 cell lines are subclones derived from a stable transfection of NIH/3T3 cells with the human L1 cDNA, and Vec-1A5 is a subclone from a transfection with the empty expression vector (Reference 12).
Cells were cultured and cell adhesion assays were performed in the absence and presence of the alcohols listed below in Table 1. The concentrations of alcohols used in the adhesion assays were calculated to produce membrane concentrations equivalent to 50-100 mM ethanol. Membrane/buffer partition coefficients (Pm/b) were obtained or were calculated from published octanol/water partition coefficients (Reference 15). Molar volumes were obtained from published sources (References 15) or were calculated from molecular weights and densities at 20° C.
Cell-cell adhesion was measured using a modified short-term aggregation assay of sub-confluent cells (Reference 12). Cells were detached by gentle agitation, mechanically dissociated to obtain a single-cell suspension, and diluted in PBS supplemented with 0.1 mg/ml DNase to 350,000 cells/ml for the NIH/3T3 cells, and 250,000 cells/ml for the NG108-15 cells. One ml of the cell suspension was added per well (4.5 cm^2) of a 12-well plate. After addition of the alcohols, the cells were gently mixed and mechanically shaken for 30 minutes at room temperature on an orbital shaker set at 60 to 80 rpm. Cells were viewed at a final magnification of 200×, and each well was scored for single and adherent cells in five or six microscopic fields of view. We counted approximately 100 cells per field of view and 600 cells per well. The percentage of adherent cells was calculated for each microscopic field of view and averaged. To calculate the magnitude of ethanol inhibition, we subtracted the values for cell adhesion with the Vec-1A5 cells from those of the 2B2-L1 or 2A2-L1 cell lines. Similarly, the values for cell adhesion in NG108-15 cells cultured in serum-free medium were subtracted from those of NG108-15 cells treated with BMP-7.
We tested the effects of a series of alcohols on cell-cell adhesion in two well-characterized model systems. NG108-15 cells were incubated for 48 hours in a serum-free medium supplemented with 10-20 ng/ml BMP-7 to induce L1 and N-CAM gene expression (Reference 10). Parallel experiments were performed using two ethanol-sensitive NIH/3T3 cell lines transfected with human L1 (2B2-L1 and 2A2-L1) (Reference 12) and a NIH/3T3 cell line transfected with the empty expression vector (1A5-V).

NG108-15 cells = assay: BMP-7 morphogenesis (cell clusters) in NG108-15 cells; format: cell-based, rat and mouse; details: 50 mM ethanol, 3 days, 0.1-40 ng/ml BMP-7
Procedure: NG108-15 cells were plated from suspensions of single cells at a density of 50,000 cells/well in poly-D-lysine-coated, 6-well plated containing serum-free medium in the absence or presence of BMP-7, as described (References 17-18). […] Control cultures were treated similarly. The media for all cells was replaced daily following the addition of ethanol. […] A cell cluster was defined as a group of three or more cells that adhered to each other along at least one quarter of their cell bodies (Reference 19). The percentage of cells in clusters was calculated by dividing the number of cells present in clusters by the total number of cells (150 to 200) in each field. Values obtained for each field of a treatment group were then averaged.
Treatment with BMP-7 for 48 hours causes NG108-15 cells to grow in clusters of adherent cells (BMP-7 morphogenesis), rather than as predominantly single cells.
The percentage of cells in clusters of three or more cells was scored from two separate fields viewed under 200×magnification.

## CCO [ethanol]
[1]
  Sensitivity of L1-transfected myeloma cells to ethanol: insensitive
[2]
  Sensitivity of L1-transfected insect SF9 cells to ethanol: insensitive
[3]
  Vm molar volume: 58 mL/mol
[4]
  Inhibition of cell-cell adhesion (in words): maximally inhibited
NG108-15 cells
  Inhibition of BMP-7 morphogenesis (percentage of cell clusters): inhibited significantly

Source: patent US6359015B1, “Method for antagonizing inhibition effects of alcohol on cell adhesion” (The United States of America as represented by the …, priority 2000, dated 2002)
